Source: patent publication US9090576B2, “2-substituted-p-quinone derivatives for treatment of oxidative stress diseases” (Edison Pharmaceuticals, Inc., priority 2008, dated 2015)

Tests used:
Assay type in all cases: cell-based
[1] = tested on: Human dermal fibroblasts from Friedreich's Ataxia patients; test: Rescue of BSO-stressed FRDA fibroblasts (Calcein AM viability); settings: BSO-stressed FRDA fibroblasts (GM04078), less than about 150 nM, read-out: EC50, protection against FRDA
In short: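 Patient FRDA fibroblasts (GM04078) seeded at 3,000 cells/well, given serially diluted compound from a 150 μM master solution, then stressed next day with 1 mM BSO.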

[2] = tested on: human dermal fibroblasts from Huntington's patients; test: Rescue of BSO-stressed fibroblasts from Huntington's patients (screen as Example A); settings: Fibroblast, BSO-stressed Huntington's fibroblasts (GM 04281), less than about 150 nM, read-out: EC50, protection against Huntington's
In short: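 Coriell Huntington's line GM 04281 plated at 3,000 cells/well and attached overnight at 37 °C. Survival was read by Calcein AM (1.2 μM, 50-70 min, RT) fluorescence at 485/525 nm, giving EC50.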

[3] = tested on: human dermal fibroblasts from LHON patients; test: Rescue of BSO-stressed fibroblasts from LHON patients (screen as Example A); settings: Fibroblast, BSO-stressed LHON fibroblasts (GM03858), less than about 150 nM, read-out: EC50, protection against LHON
In short: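 LHON patient fibroblasts (Coriell GM03858) at 3,000 cells/well were pre-treated overnight with compounds serially diluted from a 150 μM master solution. Surviving cells were stained with 1.2 μM Calcein AM for 50-70 min at RT and read by fluorescence (485/525 nm), giving EC50.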

[4] = tested on: human dermal fibroblasts from Parkinson's Disease patients; test: Rescue of BSO-stressed fibroblasts from Parkinson's Disease patients (screen as Example A); settings: Fibroblast, BSO-stressed Parkinson's Disease fibroblasts (AG20439), less than about 150 nM, read-out: EC50, protection against PD
In short: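 Dermal fibroblasts from a Parkinson's Disease patient (Coriell AG20439) were plated at 3,000 cells/well, attached overnight and pre-incubated overnight with serially diluted compounds (150 μM master solution). Survival was read by 1.2 μM calcein AM (50–70 min, RT, 485/525 nm fluorescence) and converted to EC50.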

[5] = tested on: human dermal fibroblasts from CoQ10 deficient patients; test: Rescue of BSO-stressed fibroblasts from CoQ10 deficient patients (screen similar to Example A); settings: Fibroblast, BSO-stressed fibroblasts from CoQ10 deficient patients harboring a CoQ2 mutation, less than about 150 nM, read-out: EC50, protection against CoQ10 deficiency

Measured: EC50

COc1cccc(NC(=O)CCCC2=C(C)C(=O)C(C)=C(C)C2=O)c1 [N-(3-methoxyphenyl)-4-(2,4,5-trimethyl-3,6-dioxocyclohexa-1,4-dienyl)butanamide]
< 150 nM: all assays above

CC1=C(C)C(=O)C(CCCC(=O)Nc2ccc(C#N)cc2)=C(C)C1=O [N-(4-cyanophenyl)-4-(2,4,5-trimethyl-3,6-dioxocyclohexa-1,4-dienyl)butanamide]
< 150 nM: all assays above

CC1=C(C)C(=O)C(CCCC(=O)NCCc2cccc(F)c2)=C(C)C1=O [N-(3-fluorophenethyl)-4-(2,4,5-trimethyl-3,6-dioxocyclohexa-1,4-dienyl)butanamide]
< 150 nM: all assays above

COc1ccc(NC(=O)CCCC2=C(C)C(=O)C(C)=C(C)C2=O)cc1OC [N-(3,4-dimethoxyphenyl)-4-(2,4,5-trimethyl-3,6-dioxocyclohexa-1,4-dienyl)butanamide]
< 150 nM: all assays above

CC1=C(C)C(=O)C(CCCC(=O)Nc2ccc(C)cc2)=C(C)C1=O [N-p-tolyl-4-(2,4,5-trimethyl-3,6-dioxocyclohexa-1,4-dienyl)butanamide]
< 150 nM: all assays above
